Patent US10786505B2, “Administration of NEDD8-activating enzyme inhibitor and chemotherapeutic agents” (Millennium Pharmaceuticals, Inc., priority 2013, dated 2020)

Key:
HCT116 = experiment: In vitro cell viability combination assay (CellTiter-Glo); conditions: 48 hr
BxPC3 = experiment: as above; format: cell-based; conditions: agent combined with MLN4924, vehicle DMSO, 72 hr
Text: (§1) After normalization, the controls are discarded.
(§2) Otherwise, the classification is “Additivity”.

PANC1 = experiment: as above; format: cell-based; conditions: agent combined with MLN4924, vehicle DMSO, 72 hr
Text: as §1, §2

MIA PaCa-2 = experiment: as above; format: cell-based; conditions: agent combined with MLN4924, vehicle DMSO, 72 hr
Text: as §1, §2

[1] = tested on: PHTX249Pa xenograft model; experiment: Combination of gemcitabine and MLN4924 in PHTX249Pa xenograft model; format: in vivo, mice
Description: (§3) The PHTX249 Pa pancreatic xenograft model was established from a patient-derived tumor collected during surgery from a person with pancreatic adenocarcinoma. […] Gemcitabine (Gemzar, Henry Schein, Inc, Pittsburgh Pa., and Myoderm Medical, Norristown, Pa.) is formulated in 0.9% saline and administered by intraperitoneal injection (IP) q3Dx4 (every 3 days for a total of 4 doses) at 2.5 mg/kg or 10 mg/kg, or by IV injection twice weekly (BIW) at 20 mg/kg IVU. […] Tumors are measured twice weekly using a vernier caliper. […] Tumor size and body weight are measured approximately twice a week for the duration of the study. […] Tumor growth continued to be monitored after the dosing period in some studies. […] Average tumor volume is reported as a function of time for selected groups of selected studies in Figures A, B, and C. Measurements from day 0 to 18, 21 or 22 are analyzed as specified in Tables 4-9. […] For each animal, the log tumor volume at day 0 is subtracted from the log tumor volume on the subsequent days. This difference vs. time is used to calculate an area under the curve (AUC) for each animal using the trapezoid rule. In instances when an animal in a treatment group is removed early from the study, the last observed tumor value is carried forward through all subsequent time points. […] The standard error of the synergy score is computed based on the variation in the AUC values among the animals. […] Otherwise, the combination is classified as antagonistic.

A549 = experiment: In vitro cell viability combination assay (CellTiter-Glo); conditions: 72 hr
Description: (§9) General Method: Cells are grown in their respective growth media, supplemented with 10% fetal bovine serum unless otherwise noted. […] A portion of each plate is used for positive controls (no agent is added), while another portion of each plate is used for negative controls (no cells are added). Viability is assessed with CellTiter-Glo® Cell Viability reagent used according to manufacturer's instructions (Promega). Luminescence is measured using a LEADseeker imaging system (GE Healthcare).
(§10) The viability data is normalized separately for each plate by scaling the data so that the median of the negative controls is 0 and the median of the positive controls is 100. More formally,
(§11) [formula] where Vi is the normalized viability of the i^th well, Ui is the raw viability measurement, median (U) is the median of the negative controls, and median (U+) is the median of the positive controls. After normalization, the controls are discarded.
(§12) where E1, E2, E3, E4, I1, I2, I3, S1, S2, S3, and S4 are parameters, CA and CB are the respective concentrations of agents A and B, and V is the normalized viability measurement. It is assumed that the error values are independent and identically distributed normal random variables.
(§13) The Combination Index is computed based on an isobologram, which is a slice of the dose response surface with constant viability. For the present analysis, the 50% isobologram, which is the dose contour that has 50% viability, is used. […] Since the choice of (DA, DB) can be arbitrary, the constraint DA/DB=EC50A/EC50B is used.
(§14) In such cases, Nonlinear Blending can be used as an alternative measure of synergy or additivity. Nonlinear Blending is found by considering a slice of the dose response surface that intersects both concentration axes and runs parallel to the viability axis. Let VA and VB be the viability where the slice intersects the drug A and B axes, respectively. Let Vmax and Vmin be the maximum and minimum viabilities along the slice. Let NLBS=min(VA,VB)−Vmin NLBA=Vmax−max(VA,VB) Define the Nonlinear Blending value to be NLBS if NLBS>NLBA and −NLBA otherwise.
(§15) After completing the analysis of individual plates, the results are combined across the replicates. For a given measure and a set of replicates, the overall mean and standard error are computed using weighted averaging. A null mean, which corresponded to an additive effect, is then compared with the overall mean. The null mean is 1 for the Combination Index and 0 for Nonlinear Blending. Next, a two sized Z-test is performed based on the estimated mean and standard error. This produces a p-value for each measure and each cell line.
(§16) After computing the mean, standard error, and p-value for each set of replicates, these values require interpretation. Thus, a standard procedure is used to produce a classification (synergy, additivity, subadditivity, antagonism, or inconclusive) in each case. If the Combination Index exists for more than half of the replicates, then these measures are used to make the classification.
(§17) Consider the case where the Combination Index is used to make the classification. If the p-value is greater than 0.05, the estimate for the Combination Index is not statistically different from 1. However, if the standard error is also very large, then the estimate is too uncertain to be informative. […] Otherwise, the classification is “Additivity”. When the p-value is less than 0.05, the estimate for the Combination Index is statistically different from 1. However, if the mean is still close to 1, then the difference is not of practical significance. Thus, the result is classified based on the mean. A mean in the range (0.8, 1.2) is considered close enough to 1 to be classified as Additivity. A mean in the range (0, 0.8) is considered low enough to be classified as Synergy. […] The threshold value of 2 can be derived from the definition of the Combination Index.

PHTX02B xenograft model = experiment: Combination of gemcitabine and MLN4924 in PHTX02B xenograft model; format: in vivo, mice
Description: as §3, with “PHTX02B breast” for “PHTX249 Pa pancreatic”, “invasive ductal carcinoma classified as triple negative breast cancer (ER-/PR-/Her2-) by IHC.” for “pancreatic adenocarcinoma.”

[2] = tested on: NCI-H1650 xenograft model; experiment: Combination of docetaxel and MLN4924 in NCI-H1650 xenograft model; format: in vivo, mice
Text: NCI-H1650 (2×10^6) tumor cells in RPMI-1640 media are mixed with an equal volume of Matrigel (BD Biosciences) and aseptically injected into the subcutaneous space in the right dorsal flank of Balb/c Nude mice (age 4-6 weeks, Shanghai SINO-British SIPPR/BK Lab Animal Ltd.) using a 25-gauge needle.
(§4) Docetaxel (Henry Schein, Inc., Pittsburgh Pa., Qilu Pharmaceutical Co., Ltd., Jinan, Shandong, China, and Sanofi-Aventis) is formulated in 0.9% saline and administered by intravenous injection (IV) once weekly (QW) at 5 mg/kg or 10 mg/kg.
(§5) Tumors are measured twice weekly using a vernier caliper. Tumor volumes are calculated using standard procedures (0.5×(length×width^2)). […] Tumor size and body weight are measured approximately twice a week for the duration of the study. Mice are euthanized when their tumor volume reached 10% of their body weight, or when the average tumor volume of a treatment or control group reached approximately 2000 mm^3. Tumor growth continued to be monitored after the dosing period in some studies. Average tumor volume is reported as a function of time for selected groups of selected studies in Figures A, B, and C.
(§6) Measurements from day 0 to 18, 21 or 22 are analyzed as specified in Tables 4-9. All tumor volumes have a value of 1 added to them before log10 transformation. For each animal, the log tumor volume at day 0 is subtracted from the log tumor volume on the subsequent days. This difference vs. time is used to calculate an area under the curve (AUC) for each animal using the trapezoid rule. […] The synergy score for the combination of agents A and B is defined as 100*(mean(AUCAB)−mean(AUCA)−mean(AUCB)+mean(AUCctl))/mean(AUCctl): where AUCAB, AUCA, AUCB, and AUCctl are the AUC values for animals in the combination group, the A group, the B group, and the control group, respectively. The standard error of the synergy score is computed based on the variation in the AUC values among the animals. […] If the P-value is above 0.05, then the combination is considered to be additive. If the P-value is below 0.05, and the synergy score is less than zero, then the combination is considered to be synergistic. […] Otherwise, the combination is classified as antagonistic.

NCI-H209 = experiment: In vitro cell viability combination assay (CellTiter-Glo); conditions: agent combined with MLN4924, vehicle DMSO, 96 hr
Description: as §9, §10, §11, §12, §13, §14, §15, §16, §17

LXFE409 xenograft model = experiment: Combination of docetaxel or carboplatin and MLN4924 in LXFE409 xenograft model; format: in vivo, mice
Description: LXFE409 squamous non small cell lung cancer tumor fragments are implanted into the subcutaneous space in the flank of female NMRI nu/nu mice (5-7 weeks, Janvier Labs, Saint Berthevin, France).
as §4
(§7) Carboplatin (CARBOplatin Injection, Hospira, Inc., Qilu Pharmaceutical Co., Ltd. Jinan, Shandong, China, and Teva Gry-Pharma GmbH, Ulm, Germany) is formulated in 0.9% saline and administered by IP injection once weekly (QW) at 50 mg/kg. The once weekly schedule is also described as every 7 days (Q7D).
as §5, §6

NCI-H526 = experiment: In vitro cell viability combination assay (CellTiter-Glo); conditions: agent combined with MLN4924, vehicle DMSO, 96 hr
Description: as §9, §10, §11, §12, §13, §14, §15, §16, §17

LU1143 xenograft model = experiment: Combination of docetaxel or carboplatin and MLN4924 in LU1143 xenograft model; format: in vivo, mice; conditions: 10 mg/kg docetaxel QW IV
Description: as §4, §7, §5
Measurements from day 0 to 18, 21 or 22 are analyzed as specified in Tables 4-9. All tumor volumes have a value of 1 added to them before log10 transformation. For each animal, the log tumor volume at day 0 is subtracted from the log tumor volume on the subsequent days. This difference vs. time is used to calculate an area under the curve (AUC) for each animal using the trapezoid rule. […] The synergy score for the combination of agents A and B is defined as 100*(mean(AUCAB)−mean(AUCA)−mean(AUCB)+mean(AUCctl))/mean(AUCctl): where AUCAB, AUCA, AUCB, and AUCctl are the AUC values for animals in the combination group, the A group, the B group, and the control group, respectively. The standard error of the synergy score is computed based on the variation in the AUC values among the animals. […] If the P-value is above 0.05, then the combination is considered to be additive. […]

NCI-H510 = experiment: In vitro cell viability combination assay (CellTiter-Glo); conditions: agent combined with MLN4924, vehicle DMSO, 96 hr
Description: as §9, §10, §11, §12, §13, §14, §15, §16, §17

NCI-H82 = experiment: as above; conditions: agent combined with MLN4924, vehicle DMSO, 96 hr
Description: as §9, §10, §11, §12, §13, §14, §15, §16, §17

[3] = tested on: PHTX02B breast xenograft model; experiment: Combination of docetaxel and MLN4924 in PHTX02B xenograft model; format: in vivo, mice
Text: The PHTX02B breast xenograft model was established from a patient-derived tumor collected during surgery from a person with invasive ductal carcinoma classified as triple negative breast cancer (ER−/PR−/Her2−) by IHC. PHTX02B tumor fragments (approximately 2×2×3 mm^3) are implanted into the subcutaneous space in the right dorsal flank of female SCID-NOD mice (age 5-7 weeks, Jackson Laboratory, Bar Harbor, Me.) using a 13-gauge trocar.
as §4, §5, §6

NCI-H69 = experiment: In vitro cell viability combination assay (CellTiter-Glo); format: cell-based; conditions: agent combined with MLN4924, vehicle DMSO, 96 hr
Text: as §1, §2

NCI-H69 xenograft model = experiment: Combination of cisplatin and MLN4924 in NCI-H69 xenograft model; format: in vivo, mice; conditions: 4 mg/kg Cisplatin Q4Dx3 IP
Description: (§8) NCI-H69 or NCI-H82 small cell lung tumor fragments (30- to 40-mg) are implanted into the subcutaneous space in the area of the right flank of NCr nu/nu mice (7-10 weeks, Charles River Laboratories, Inc, Frederick Md. or Wilmington, Mass.) using a 12-gauge trocar.
as §5, §6

NCI-H82 xenograft model = experiment: Combination of cisplatin and MLN4924 in NCI-H82 xenograft model; format: in vivo, mice
Description: as §8, §5, §6

[4] = agent combined with MLN4924, vehicle DMSO
[5] = agent combined with MLN4924, vehicle PBS

Row | Compound | Combination Index (HCT116; [4]) | Nonlinear Blending (HCT116; [4]) | Combination Index (A549; [4]) | Nonlinear Blending (A549; [4]) | Combination Index (NCI-H209) | Nonlinear Blending (NCI-H209) | Nonlinear Blending (NCI-H526) | Nonlinear Blending (NCI-H510) | Combination Index (NCI-H82) | Nonlinear Blending (NCI-H82) | Nonlinear Blending (HCT116; [5]) | Nonlinear Blending (NCI-H69) | Nonlinear Blending (A549; [5]) | further results
1 | Nc1ccn([C@@H]2O[C@H](CO)[C@@H](O)C2(F)F)c(=O)n1 [gemcitabine] | 0.49 ± 0.1 | 30 ± 3 | 1.44 ± 0.07 | −16 ± 3 |  |  |  |  |  |  |  |  |  | Combination Index (BxPC3): 1.49; Nonlinear Blending (BxPC3): −26.0; Combination Index (PANC1): 0.24; Nonlinear Blending (PANC1): 19.4; Combination Index (MIA PaCa-2): 1.15; Nonlinear Blending (MIA PaCa-2): −8.1; average tumor volume day 18 ([1]; PHTX249Pa xenograft, 20 mg/kg gemcitabine BIW IV): 585.1 mm^3; tumor growth compared to the control vehicle group (in words) ([1]; PHTX249 Pa xenograft, gemcitabine 20 mg/kg IV BIW, MLN4924 90 mg/kg SC BID BIW, single agents or their combination): inhibited tumor growth compared to the control vehicle group; average tumor volume day 22 (PHTX02B xenograft model; 2.5 mg/kg gemcitabine Q3Dx4 IP): 1386.3 mm^3; average tumor volume day 22 (PHTX02B xenograft model; 10 mg/kg gemcitabine Q3Dx4 IP): 769.4 mm^3; tumor growth during the treatment period (in words) (PHTX02B xenograft model; FIG. 2, MLN4924 SC 30 mg/kg BID, gemcitabine 10 mg/kg IP q3dx4, single agents or their combination): inhibited tumor growth compared to the control vehicle group
2 | CC(=O)O[C@@]12CO[C@@H]1C[C@H](O)[C@@]1(C)C(=O)[C@H](O)C3=C(C)[C@@H](OC(=O)[C@H](O)[C@@H](NC(=O)OC(C)(C)C)c4ccccc4)C[C@@](O)([C@@H](OC(=O)c4ccccc4)[C@H]21)C3(C)C [docetaxel] | 1.01 ± 0.09 | 7 ± 2 | 1.00 ± 0.1 | 1 ± 1 | 1.27 ± 0.09 | −16 ± 5 | −23 ± 3 | −13 ± 4 | 1.45 ± 0.09 | −11 ± 2 |  |  |  | average tumor volume day 21 ([2]; 5 mg/kg docetaxel QW IV): 719.2 mm^3; average tumor volume day 21 ([2]; 10 mg/kg docetaxel QW IV): 282.7 mm^3; tumor course after the treatment period, to end of study on day 95 (in words) (LXFE409 xenograft model; LXFE409 sqNSCLC model, FIG. 4, MLN4924 120 mg/kg SC Q2Dx3/week for 3 weeks, docetaxel 10 mg/kg IV QW for 3 weeks, single agents or combination): regrew after the treatment period ended; average tumor volume day 21 (LXFE409 xenograft model; LXFE409 xenograft, 10 mg/kg docetaxel QW IV): 44.6 mm^3; Combination Index (NCI-H526): 1.38 ± 0.06; average tumor volume day 21 (LU1143 xenograft model): 498.9 mm^3; Combination Index (NCI-H510): 1.15 ± 0.08; tumor growth during the treatment period (in words) ([3]; PHTX02B breast xenograft, FIG. 1, MLN4924 SC 60 mg/kg BID 5 days on/5 days off, docetaxel 5 mg/kg IV QW, single agents or their combination): inhibited tumor growth compared to the control vehicle group; average tumor volume day 21 ([3]; PHTX02B xenograft, 5 mg/kg docetaxel QW IV): 736.3 mm^3
3 | O=C1[O][Pt]2([NH][C@@H]3CCCC[C@H]3[NH]2)[O]C1=O [oxaliplatin] |  |  |  |  |  | −5 ± 2 | −8 ± 4 | 2 ± 3 |  | 6 ± 2 | 10 ± 5 | 11 ± 3 | 2 ± 2 | 
4 | CC(=O)O[C@H]1C(=O)[C@@]2(C)[C@H]([C@H](OC(=O)c3ccccc3)[C@]3(O)C[C@H](OC(=O)[C@H](O)[C@@H](NC(=O)c4ccccc4)c4ccccc4)C(C)=C1C3(C)C)[C@]1(OC(C)=O)CO[C@@H]1C[C@@H]2O [paclitaxel] |  | −14 ± 2 |  | −6 ± 0.9 |  | −8 ± 3 | −26 ± 3 | −22 ± 4 |  | −16 ± 2 |  | −16 ± 4 |  | 
5 | N.N.[Cl][Pt][Cl] [cisplatin] | 0.76 ± 0.02 | 21 ± 1 | 0.65 ± 0.03 | 11 ± 5 | 1.28 ± 0.08 | −15 ± 3 |  | 20 ± 3 | 0.81 ± 0.07 | 10 ± 2 | 14 ± 6 | −7 ± 3 | 10 ± 1 | Combination Index (HCT116; [5]): 0.76 ± 0.09; average tumor volume day 22 (NCI-H69 xenograft model): 213.6 mm^3; Combination Index (NCI-H69): 1.28 ± 0.2; average tumor volume day 22 (NCI-H82 xenograft model; 2 mg/kg cisplatin Q4Dx3 IP): 628.7 mm^3; average tumor volume day 22 (NCI-H82 xenograft model; 4 mg/kg cisplatin Q4Dx3 IP): 445.2 mm^3; Combination Index (A549; [5]): 0.75 ± 0.05
